Measurements: patent publication US20100267561A1, “HERBICIDAL PYRIDAZINONE DERIVATIVES” (priority 2007, published 2010)

How the values were obtained:
Experiment in all cases: Test B pre-/postemergence plant response
Type in all cases: in vivo
[1] = system: velvetleaf (Abutilon theophrasti); conditions: for Velvetleaf plant response rating: 8 g ai/ha
Procedure, shortened: (§1)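 Seeds were sown and sprayed preemergence, while plants at 2 to 18 cm (1- to 4-leaf stage) got postemergence sprays. Compounds were formulated in a non-phytotoxic solvent mixture with surfactant. After 13 to 15 days in a greenhouse, injury was rated visually against untreated controls, 0 (no effect) to 100 (complete control).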

[2] = system: wheat (Triticum aestivum); conditions: for Wheat plant response rating: 8 g ai/ha
Procedure, shortened: as §1

[3] = system: common (oilseed) sunflower (Helianthus annuus); conditions: Preemergence
Procedure, shortened: as §1

soybean (Glycine max) = system: soybean (Glycine max)
Procedure, shortened: as §1

[4] = system: Italian ryegrass (Lolium multiflorum); conditions: for Ryegrass, Italian plant response rating: 8 g ai/ha
Procedure, shortened: as §1

[5] = system: cocklebur (Xanthium strumarium); conditions: for Cocklebur plant response rating: 8 g ai/ha
Procedure, shortened: as §1

[6] = system: surinam grass (Brachiaria decumbens); conditions: for Surinam Grass plant response rating: 8 g ai/ha
Procedure, shortened: as §1

[7] = system: common ragweed (Ambrosia elation); conditions: for Ragweed plant response rating: 8 g ai/ha
Procedure, shortened: as §1

kochia (Kochia scoparia) = conditions: for Plant response rating, Kochia: Postemergence
Procedure, shortened: as §1

[8] = system: lambsquarters (Chenopodium album); conditions: for Lambsquarters plant response rating: 8 g ai/ha
Procedure, shortened: as §1

[9] = system: johnsongrass (Sorghum halepense); conditions: for Johnsongrass plant response rating: 8 g ai/ha
Procedure, shortened: as §1

[10] = system: morningglory (Ipomoea coccinea); conditions: for Morningglory plant response rating: 8 g ai/ha
Procedure, shortened: as §1

[11] = system: bermudagrass (Cynodon dactylon); conditions: for Bermudagrass plant response rating: 8 g ai/ha
Procedure, shortened: as §1

[12] = system: goosegrass (Eleusine indica); conditions: for Goosegrass plant response rating: 8 g ai/ha
Procedure, shortened: as §1

[13] = Postemergence, 16 g ai/ha, scale 0 to 100
[14] = Postemergence, 62 g ai/ha, scale 0 to 100, 0 no effect, 100 complete control
[15] = Preemergence, 16 g ai/ha, scale 0 to 100 (0 no effect, 100 complete control)
[16] = Preemergence, 31 g ai/ha, 0 to 100 scale, 0 no effect, 100 complete control
[17] = Preemergence, 62 g ai/ha, scale 0 to 100
[18] = 8 g ai/ha, postemergence, 0-100 scale
[19] = Postemergence, 31 g ai/ha, scale 0 to 100, 0 no effect, 100 complete control

## Cn1ncc(O)c(-c2nn(-c3ccc(Cl)cc3)cc2Cl)c1=O [Compound 28]
[1]; postemergence, 0-100 scale
  Velvetleaf plant response rating: 0
[1]; [13]
  Plant response rating, Velvetleaf: 0
[1]; [14]
  Plant response rating, Velvetleaf: 0
[1]; [15]
  Plant response rating, Velvetleaf: 0
[1]; [16]
  Plant response rating, Velvetleaf: 0
[1]; [17]
  Plant response rating, Velvetleaf: 0
[1]; Preemergence, scale 0 to 100
  Velvetleaf plant response rating: 0
[2]; postemergence, 0-100 scale
  Wheat plant response rating: 20
[2]; [13]
  Plant response rating, Wheat: 40
[2]; [14]
  Plant response rating, Wheat: 90
[2]; [15]
  Plant response rating, Wheat: 5
[2]; [16]
  Plant response rating, Wheat: 15
[2]; [17]
  Plant response rating, Wheat: 90
[2]; Preemergence, scale 0 to 100
  Wheat plant response rating: 0
[3]; 16 g ai/ha, scale 0 to 100 (0 no effect, 100 complete control)
  Plant response rating, Sunflower: 0
[3]; 31 g ai/ha, 0 to 100 scale, 0 no effect, 100 complete control
  Plant response rating, Sunflower: 0
[3]; 62 g ai/ha, scale 0 to 100
  Plant response rating, Sunflower: 0
[3]; 8 g ai/ha, scale 0 to 100
  Sunflower plant response rating: 0
Soybean (Glycine max); [18]
  Soybean plant response rating: 0
Soybean (Glycine max); [13]
  Plant response rating, Soybean: 0
Soybean (Glycine max); [14]
  Plant response rating, Soybean: 20
Soybean (Glycine max); [16]
  Plant response rating, Soybean: 0
Soybean (Glycine max); [17]
  Plant response rating, Soybean: 0
[4]; postemergence, 0-100 scale
  Ryegrass, Italian plant response rating: 40
[4]; [13]
  Plant response rating, Ryegrass, Italian: 55
[4]; [19]
  Plant response rating, Ryegrass, Italian: 55
[4]; [14]
  Plant response rating, Ryegrass, Italian: 98
[4]; [15]
  Plant response rating, Ryegrass, Italian: 80
[4]; [16]
  Plant response rating, Ryegrass, Italian: 100
[4]; [17]
  Plant response rating, Ryegrass, Italian: 100
[4]; Preemergence, scale 0 to 100
  Ryegrass, Italian plant response rating: 0
[5]; postemergence, 0-100 scale
  Cocklebur plant response rating: 0
[5]; [13]
  Plant response rating, Cocklebur: 0
[5]; [19]
  Plant response rating, Cocklebur: 0
[5]; [14]
  Plant response rating, Cocklebur: 0
[5]; [15]
  Plant response rating, Cocklebur: 0
[5]; [16]
  Plant response rating, Cocklebur: 0
[5]; [17]
  Plant response rating, Cocklebur: 0
[5]; Preemergence, scale 0 to 100
  Cocklebur plant response rating: 0
[6]; postemergence, 0-100 scale
  Surinam Grass plant response rating: 65
[6]; [13]
  Plant response rating, Surinam Grass: 65
[6]; [14]
  Plant response rating, Surinam Grass: 90
[6]; [15]
  Plant response rating, Surinam Grass: 65
[6]; [16]
  Plant response rating, Surinam Grass: 98
[6]; [17]
  Plant response rating, Surinam Grass: 100
[6]; Preemergence, scale 0 to 100
  Surinam Grass plant response rating: 0
[7]; postemergence, 0-100 scale
  Ragweed plant response rating: 0
[7]; [13]
  Plant response rating, Ragweed: 0
[7]; [19]
  Plant response rating, Ragweed: 0
[7]; [14]
  Plant response rating, Ragweed: 0
[7]; [15]
  Plant response rating, Ragweed: 0
[7]; [16]
  Plant response rating, Ragweed: 0
[7]; [17]
  Plant response rating, Ragweed: 0
[7]; Preemergence, scale 0 to 100
  Ragweed plant response rating: 0
Kochia (Kochia scoparia); [18]
  Kochia plant response rating: 0
Kochia (Kochia scoparia); 16 g ai/ha, scale 0 to 100
  Plant response rating, Kochia: 0
Kochia (Kochia scoparia); 31 g ai/ha, scale 0 to 100, 0 no effect, 100 complete control
  Plant response rating, Kochia: 0
Kochia (Kochia scoparia); 62 g ai/ha, scale 0 to 100, 0 no effect, 100 complete control
  Plant response rating, Kochia: 0
[8]; postemergence, 0-100 scale
  Lambsquarters plant response rating: 0
[8]; [13]
  Plant response rating, Lambsquarters: 0
[8]; [19]
  Plant response rating, Lambsquarters: 0
[8]; [14]
  Plant response rating, Lambsquarters: 0
[8]; [15]
  Plant response rating, Lambsquarters: 95
[8]; [16]
  Plant response rating, Lambsquarters: 95
[8]; [17]
  Plant response rating, Lambsquarters: 98
[8]; Preemergence, scale 0 to 100
  Lambsquarters plant response rating: 80
[9]; postemergence, 0-100 scale
  Johnsongrass plant response rating: 20
[9]; [13]
  Plant response rating, Johnsongrass: 65
[9]; [19]
  Plant response rating, Johnsongrass: 75
[9]; [14]
  Plant response rating, Johnsongrass: 98
[9]; [15]
  Plant response rating, Johnsongrass: 85
[9]; [16]
  Plant response rating, Johnsongrass: 98
[9]; [17]
  Plant response rating, Johnsongrass: 100
[9]; Preemergence, scale 0 to 100
  Johnsongrass plant response rating: 70
[10]; postemergence, 0-100 scale
  Morningglory plant response rating: 0
[10]; [13]
  Plant response rating, Morningglory: 0
[10]; [19]
  Plant response rating, Morningglory: 0
[10]; [14]
  Plant response rating, Morningglory: 0
[10]; [15]
  Plant response rating, Morningglory: 0
[10]; [16]
  Plant response rating, Morningglory: 0
[10]; [17]
  Plant response rating, Morningglory: 0
[10]; Preemergence, scale 0 to 100
  Morningglory plant response rating: 0
[11]; postemergence, 0-100 scale
  Bermudagrass plant response rating: 65
[11]; [13]
  Plant response rating, Bermudagrass: 80
[11]; [19]
  Plant response rating, Bermudagrass: 100
[11]; [14]
  Plant response rating, Bermudagrass: 100
[11]; Preemergence, scale 0 to 100 (0 no effect, 100 complete control)
  Bermudagrass plant response rating: 0
[11]; [15]
  Plant response rating, Bermudagrass: 100
[11]; [16]
  Plant response rating, Bermudagrass: 100
[11]; [17]
  Plant response rating, Bermudagrass: 100
[12]; postemergence, 0-100 scale
  Goosegrass plant response rating: 65
[12]; [13]
  Plant response rating, Goosegrass: 75
[12]; [19]
  Plant response rating, Goosegrass: 80
[12]; [14]
  Plant response rating, Goosegrass: 90
[12]; [15]
  Plant response rating, Goosegrass: 100
[12]; [16]
  Plant response rating, Goosegrass: 100
[12]; [17]
  Plant response rating, Goosegrass: 100
[12]; Preemergence, scale 0 to 100
  Goosegrass plant response rating: 80
